Measured values from patent US12022844B2, “Nutritional composition, food/drink composition using nutritional composition, and modified milk powder using nutritional composition” (priority 2018, dated 2024).

Experiments:
[1] = test system: Bifidobacterium bifidum ATCC29521; assay: Single bacterial culturing with HMO as sugar source, OD650; format: cell-based; settings: ATCC 29521^T, sugar source 2%, anaerobic 37° C., 8 h, Table 5
Experimental: (§1) A10% solution of glucose (manufactured by Nakarai Tesque Inc.), and 2′-FL ((≥95%) Funakoshi, available from sigma), and LNnT (manufactured by ELICITYL) as examples of HMOs was prepared with ion exchanged water, and was subjected to sterile filtration using Millex-GV (SLGV033RS).
(§2) Lactobacilli MRS Broth (BD) (0.05% L-Cysteine Hydrochloride for Bacteria of the genus Bifidobacterium) was added to strains of Table 1 below (bacteria belonging to Bifidobacterium bifidum) and Table 2 below. After a sterilization treatment, 3% of the bacterial solution was inoculated, and anaerobically cultured (pre-pre cultured) at 37° C. for 16 h.
(§3) The following day, 1% glucose was added to a modified BL agar medium (“Studies on Bifidobacteria” by Tomotari Mitsuoka, p. 306, Japan Bifidus Foundation, issued in 1994) noted in Table 3, for preparation. After a sterilization treatment, 3% of the pre-pre cultured bacterial solution was inoculated, and anaerobically pre-cultured (pre-cultured) at 37° C. for 12 h.
(§4) The pre-cultured bacterial solution was collected and washed once with a sterile physiological saline solution. Then, mass-up was performed to an equal volume with the modified BL agar medium (“Studies on Bifidobacteria” by Tomotari Mitsuoka, p. 306, Japan Bifidus Foundation, issued in 1994) noted in Table 3 to prepare a suspended bacterial solution.
(§5) The modified BL agar medium (“Studies on Bifidobacteria” by Tomotari Mitsuoka, p. 306, Japan Bifidus Foundation, issued in 1994) noted in Table 3 was prepared at a capacity of 60%, and was subjected to an autoclave sterilization treatment. Then, 40% of each sugar solution prepared in (1) was aseptically added so as to prepare a medium with a sugar concentration of 4%.
(§6) The medium prepared in the above (3) was dispensed at a capacity that is half the capacity for culturing in a 96-well plate, and the bacterial solution prepared in the above (2) was dispensed at a remaining half capacity such that the bacterial solution had 6%. Then, a final sugar concentration was set to 2%. The plate into which the bacterial solution was dispensed was anaerobically cultured at 37° C. for 8 h.
(§7) OD650 was measured from each well in the plates in the above (4) and the above (5) before (0 h) culturing and after (8 h) culturing, by MICROPLATE READER SH-9000 (manufactured by CORONA ELECTRIC). After turbidity measurement, microbial cells were collected, and DNA extraction was performed. After the DNA extraction, the number of proliferating bacteria of Bifidobacteria/lactobacilli was analyzed by using the bacterial species-specific primer noted in Table 4, by a quantitative PCR method (see “Structural analysis of intestinal flora”—analysis of bacterial flora in human feces using quantitative PCR—by Kouichi Watanabe, Enterobacteriological journal, 20:35-42, 2006).
(§8) Regarding bacteria belonging to Bifidobacterium bifidum in Table 1, each strain was cultured as a single bacterium by 2′-FL or LNnT (HMOs) as a sugar source, and OD650 was measured. Table 5 illustrates OD650 increase values after seven strains of the bacteria belonging to Bifidobacterium bifidum in Table 1 were cultured for 8 h by 2′-FL or LNnT as a sugar source.

[2] = test system: Bifidobacterium bifidum NITE BP-02431; assay: as above; format: cell-based; settings: sugar source 2%, anaerobic 37° C., 8 h, Table 5
Experimental: as §1, §2, §3, §4, §5, §6, §7, §8

[3] = test system: Bifidobacterium bifidum NITE BP-02432; assay: as above; format: cell-based; settings: sugar source 2%, anaerobic 37° C., 8 h, Table 5
Experimental: as §1, §2, §3, §4, §5, §6, §7, §8

[4] = test system: Bifidobacterium bifidum NITE BP-02433; assay: as above; format: cell-based; settings: sugar source 2%, anaerobic 37° C., 8 h, Table 5
Experimental: as §1, §2, §3, §4, §5, §6, §7, §8

[5] = test system: Bifidobacterium bifidum NITE BP-1252; assay: as above; format: cell-based; settings: sugar source 2%, anaerobic 37° C., 8 h, Table 5
Experimental: as §1, §2, §3, §4, §5, §6, §7, §8

[6] = test system: Bifidobacterium bifidum NITE P-02648; assay: as above; format: cell-based; settings: sugar source 2%, anaerobic 37° C., 8 h, Table 5
Experimental: as §1, §2, §3, §4, §5, §6, §7, §8

[7] = test system: Bifidobacterium bifidum NITE BP-02429; assay: as above; format: cell-based; settings: 8 h
Experimental: as §1, §2, §3, §4
The modified BL agar medium (“Studies on Bifidobacteria” by Tomotari Mitsuoka, p. 306, Japan Bifidus Foundation, issued in 1994) noted in Table 3 was prepared at a capacity of 60%, and was subjected to an autoclave sterilization treatment. Then, 40% of each sugar solution prepared in (1) was aseptically added so as to prepare a medium with a sugar concentration of 4%. […]
OD650 was measured from each well in the plates in the above (4) and the above (5) before (0 h) culturing and after (8 h) culturing, by MICROPLATE READER SH-9000 (manufactured by CORONA ELECTRIC). […] After the DNA extraction, the number of proliferating bacteria of Bifidobacteria/lactobacilli was analyzed by using the bacterial species-specific primer noted in Table 4, by a quantitative PCR method (see “Structural analysis of intestinal flora”—analysis of bacterial flora in human feces using quantitative PCR—by Kouichi Watanabe, Enterobacteriological journal, 20:35-42, 2006).
Regarding bacteria belonging to Bifidobacterium bifidum in Table 1, each strain was cultured as a single bacterium by 2′-FL or LNnT (HMOs) as a sugar source, and OD650 was measured. […]
Regarding strains in Table 2, each strain was cultured as a single bacterium by 2′-FL or LNnT (HMOs) as a sugar source, and OD650 was measured. […]

[8] = test system: Lactobacillus paracasei ATCC25302; assay: as above; format: cell-based; settings: ATCC 25302^T, sugar source 2%, 8 h
Experimental: as §1, §2, §3, §4, §5, §6, §7
(§9) Regarding strains in Table 2, each strain was cultured as a single bacterium by 2′-FL or LNnT (HMOs) as a sugar source, and OD650 was measured. The results for 2′-FL are noted in Table 6 below, and the results for LNnT are noted in Table 7 below.

[9] = test system: Bifidobacterium peseudocatenulatum ATCC27919; assay: Mix-culturing with Bifidobacterium bifidum by HMO as sugar source, quantitative PCR; format: cell-based, Bifidobacterium pseudocatenulatum; settings: ATCC 27919^T mix-cultured with Bifidobacterium bifidum (NITE BP-02429), sugar source 2%, Table 8
Experimental: as §1
as §2, with “h. […]” for “h.”
(§10) OD650 was measured from each well in the plates in the above (4) and the above (5) before (0 h) culturing and after (8 h) culturing, by MICROPLATE READER SH-9000 (manufactured by CORONA ELECTRIC). […] After the DNA extraction, the number of proliferating bacteria of Bifidobacteria/lactobacilli was analyzed by using the bacterial species-specific primer noted in Table 4, by a quantitative PCR method (see “Structural analysis of intestinal flora”—analysis of bacterial flora in human feces using quantitative PCR—by Kouichi Watanabe, Enterobacteriological journal, 20:35-42, 2006). […]

[10] = test system: Lactobacillus acidophhilus ATCC4356; assay: as above; format: cell-based, Lactobacillus acidophilus; settings: ATCC 4356^T mix-cultured with Bifidobacterium bifidum (NITE BP-02429), sugar source 2%, Table 8
Experimental: as §1
as §2, with “h. […]” for “h.”
as §10

[11] = test system: strains in Table 2 except for Bifidobacterium infantis; assay: Availability of HMOs by probiotics (single culturing, summary); format: cell-based; settings: single bacterial culturing, 8 h; summary of Tables 6 and 7
Experimental: as §6, §7, §9

[12] = NITE BP-02429, sugar source 2%, anaerobic 37° C., Table 5

Compound	OD650 increase value [1]	OD650 increase value [2]	OD650 increase value [3]	OD650 increase value [4]	OD650 increase value [5]	OD650 increase value [6]	OD650 increase value ([7]; NITE BP-02429(PC), sugar source 2%, Table 6)	OD650 increase value [7, 12]	OD650 increase value ([8]; Table 6)	Proliferation rate (number of bacteria after mix-culturing for 8 h/number of bacteria after single bacterial culturing) [9]	Proliferation rate (number of bacteria after mix-culturing for 8 h/number of bacteria after single bacterial culturing) [10]	assimilability by strains in Table 2 except for Bifidobacterium infantis [11]	OD650 increase value ([7]; NITE BP-02429 (PC: positive control), sugar source 2%, Table 7)	OD650 increase value ([8]; Table 7)
2′-fucosyllactose [2′-FL]	0.060	0.037	0.430	0.431	0.225	0.470	0.135	0.167	−0.011	3.08	3.54	had no assimilability in 2′-FL or LNnT (HMOs), or a low assimilability	–	–
CC(=O)N[C@H]1[C@H](O[C@H]2[C@@H](O)[C@@H](CO)O[C@@H](O[C@H]3[C@H](O)[C@@H](O)C(O)O[C@@H]3CO)[C@@H]2O)O[C@H](CO)[C@@H](O[C@@H]2O[C@H](CO)[C@H](O)[C@H](O)[C@H]2O)[C@@H]1O (mixture of isomers) [LNnT, lacto-N-neotetraose]	0.008	0.535	0.522	0.370	0.373	0.719	–	0.608	–	1.55	3.77	had no assimilability in 2′-FL or LNnT (HMOs), or a low assimilability	0.608	0.052
